We go through twelve molecules from patent US9623021B2, “Nuclear receptor binding agents” (GTX, Inc., priority 2007, dated 2017).

The target in data set [1] is ERα ligand binding domain (Homo sapiens (Human), UniProt P03372). The data set is described as follows: Competitive [3H]-estradiol radioligand binding, ERα (Example 21). The procedure:
(§1) ER binding affinity was determined via one of the following methods:
(§2) Briefly, the incubation mixture was filtered through a high affinity protein binding filter, and washed several times to remove any unbound radioactivity. The filter plate was air dried and sealed on the bottom.
(§3) Following incubation, plates were harvested onto GF/B filters and radioactivity was measured with a TopCount NXT (PerkinElmer). Nonspecific binding was subtracted from total binding to yield specific binding.

Data set [2] addresses ERβ ligand binding domain (Homo sapiens (Human), UniProt Q92731). The experiment in a line: Competitive [3H]-estradiol radioligand binding, ERβ (Example 21). The note with it: for Ki Ratio (ER-α/ER-β): ratio between the binding constants of ER-α and ER-β. On the procedure:
as §1, §2, §3

For the next data set, the system named is ARPE-19 cells. The experiment in a line: Fluorescent detection of intracellular ROS in ARPE-19 cells (tBH oxidative stress). The note with it: 150 μM tBH, FIG. 20B.
Another data set concerns SHP promoter. The data set is described as follows: SHP promoter-luciferase in HEK-293 cells transfected with FXR and ER-β. Format: cell-based. To be noted: FXR and ER-β plasmids, FIG. 12E right panel. On the procedure:
FIG. 12 depict the effect of ER-β ligand on PPAR-γ function through ligand binding domain (LBD). (A). HEK-293 cells were transfected with 0.25 μg PPRE-LUC, 5 ng CMV-renilla LUC and the indicated receptors (PPAR-γ and ER-β for the left panel and PPAR-α and ER-β for the right panel). The cells were treated 24 hrs after transfection with the indicated ligands and harvested 48 hrs after transfection and firefly luciferase activity was measured and normalized to renilla luciferase. (B). H475 in ER-β LBD is important for its function. H475 in ER-β LBD was mutated to alanine (A) using a site directed mutagenesis kit. Transactivation assay was performed as described in panel A in HEK-293 cells with a titration of ER-β ligands in wild type or ER-β H475A. (C). […] HEK-293 cells were transfected with 0.25 μg PPRE-LUC, 5 ng CMV-renilla LUC and 50 ng of the indicated receptors (PPAR-γ or PPAR-γ and wild type ER-β or PPAR-γ and ER-β H475A). The cells were treated 24 hrs after transfection with the indicated ligands and harvested 48 hrs after transfection and firefly luciferase activity was measured and normalized to renilla luciferase. (D). […] HepG2 cells were transfected with 0.25 μg PPRE-LUC, 5 ng CMV-renilla LUC, 0.5 μg PGC-1 or vector backbone and 100 ng of the indicated receptors (PPAR-γ or PPAR-γ and wild type ER-β or PPAR-γ and ER-β H475A for top panels and PPAR-α or PPAR-α and ER-β for bottom panel). The cells were treated 24 hrs after transfection with the indicated ligands and harvested 48 hrs after transfection and firefly luciferase activity was measured and normalized to renilla luciferase. (E). SHP-1 is an ER-β specific target gene. HEK-293 cells were transfected with 0.25 μg SHP-LUC, 5 ng CMV-renilla LUC and 50 ng of the indicated receptors (FXR and ER-α for the left panel and FXR and ER-β for the right panel). The cells were treated 24 hrs after transfection with the indicated ligands and harvested 48 hrs after transfection and firefly luciferase activity was measured and normalized to renilla luciferase. […]

Another data set addresses ER-β (Rattus norvegicus (Rat), UniProt Q62986). The data set is described as follows: ER-β transactivation, ERE-LUC reporter in COS or 293 cells (Example 21B). Format: cell-based.
In a further data set the target is ER-α (Rattus norvegicus (Rat), UniProt P06211). Format: cell-based. The note with it: for Estradiol activity at 100 nM, ER-α: 100 nM NRBA compared to 1 nM estradiol. On the procedure:
COS or 293 cells were plated in DME without phenol red+10% cs FBS at 90,000 cells per well in 24 well plates, and were transfected with 0.25 μg of the vector “ERE-LUC”, where a firefly luciferase gene was driven by two estrogen responsive elements and 0.02 μg of the control CMV-LUC, Renilla where a luciferase gene was driven by a CMV promoter. […] All the receptors were cloned from rat tissue into the PCR3.1 vector backbone. Twenty four hours post transfection, cells were treated with compounds of this invention, estrogen, DHT, and other NRBAs or combinations thereof. Cells were harvested 48 hrs after transfection, and assayed for firefly and Renilla luciferase activity.

The next data set deals with uterus. The data set is described as follows: Uterotropic assay. The note with it: 50 μg/kg/day s.c., 3 days. On the procedure:
Statistical differences among groups were evaluated by one-way ANOVA. Rats were treated for 3 consecutive days and then sacrificed 24 h after the last dose. The body of the uterus was cut just above its junction with the cervix and at the junction of the uterine horns with the ovaries. The uterus was weighed with and without intrauterine fluid. Statistical comparisons were made between the weights of empty uteri.

Entries after “also recorded” stand apart in the source; their conditions may differ. Read-outs that look alike come from different tables or passages of the source.

Sequence of ERβ ligand binding domain (Q92731 264-498, species assumed): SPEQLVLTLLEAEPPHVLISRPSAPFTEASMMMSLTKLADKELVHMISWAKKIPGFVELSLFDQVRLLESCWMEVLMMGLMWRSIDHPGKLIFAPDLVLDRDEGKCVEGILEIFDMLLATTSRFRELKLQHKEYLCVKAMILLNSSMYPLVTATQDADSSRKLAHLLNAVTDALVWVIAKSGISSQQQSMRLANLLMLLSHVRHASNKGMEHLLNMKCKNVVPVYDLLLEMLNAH
Sequence of ER-β (Q62986 whole entry): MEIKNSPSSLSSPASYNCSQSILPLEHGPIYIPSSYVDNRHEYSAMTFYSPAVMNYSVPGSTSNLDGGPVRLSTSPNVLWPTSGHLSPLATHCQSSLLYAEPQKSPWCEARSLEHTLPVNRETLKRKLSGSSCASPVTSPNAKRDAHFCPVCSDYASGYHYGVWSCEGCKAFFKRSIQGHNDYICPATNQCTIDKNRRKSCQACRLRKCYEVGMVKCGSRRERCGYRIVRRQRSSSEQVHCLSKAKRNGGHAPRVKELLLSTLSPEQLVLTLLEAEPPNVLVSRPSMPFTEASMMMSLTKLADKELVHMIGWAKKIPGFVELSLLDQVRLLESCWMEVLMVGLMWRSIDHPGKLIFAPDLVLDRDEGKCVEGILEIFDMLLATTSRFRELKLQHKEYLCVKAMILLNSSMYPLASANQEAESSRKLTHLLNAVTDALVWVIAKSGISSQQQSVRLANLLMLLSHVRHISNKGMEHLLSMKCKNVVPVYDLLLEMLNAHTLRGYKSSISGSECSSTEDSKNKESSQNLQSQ
Sequence of ERα ligand binding domain (P03372 whole entry, looked up, species assumed, the tested form may be a part): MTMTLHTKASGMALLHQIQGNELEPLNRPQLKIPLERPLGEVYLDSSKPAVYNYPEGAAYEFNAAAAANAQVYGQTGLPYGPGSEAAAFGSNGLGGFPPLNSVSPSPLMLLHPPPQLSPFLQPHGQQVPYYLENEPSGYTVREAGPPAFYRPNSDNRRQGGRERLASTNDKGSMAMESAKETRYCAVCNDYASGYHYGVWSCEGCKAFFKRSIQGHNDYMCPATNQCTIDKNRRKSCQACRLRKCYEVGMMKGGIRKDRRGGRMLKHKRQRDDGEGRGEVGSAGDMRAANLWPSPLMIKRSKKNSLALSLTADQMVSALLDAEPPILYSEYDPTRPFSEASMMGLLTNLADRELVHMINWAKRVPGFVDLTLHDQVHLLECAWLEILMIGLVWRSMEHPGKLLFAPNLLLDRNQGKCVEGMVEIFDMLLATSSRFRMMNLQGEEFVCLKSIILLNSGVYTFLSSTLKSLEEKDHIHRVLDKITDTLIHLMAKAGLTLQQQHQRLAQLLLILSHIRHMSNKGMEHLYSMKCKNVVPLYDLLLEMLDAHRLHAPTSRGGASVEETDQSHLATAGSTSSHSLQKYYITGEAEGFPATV

One may read the Ki as the equilibrium dissociation constant of an inhibitor or competing ligand from its target. A lower Ki goes with a stronger hold on the target. For `O=c1c2c(O)cc(O)cc2c(Br)cn1-c1ccc(O)c(F)c1` [Compound 12z, 4-bromo-6,8-dihydroxy-2-(3-fluoro-4-hydroxyphenyl)isoquinolin-1(2H)-one], in data set [1], the Ki came out at 40 nM. For the same molecule, the “Ki Ratio (ER-α/ER-β)” value in data set [2] worked out at 12. Also, the “prevention of ROS formation / oxidative damage” value in the data set on ARPE-19 cells was “able to prevent ROS formation as well as estradiol; also recorded: protected ARPE-19 cells from oxidative damage”.
As to `COc1ccc(-c2cn(-c3ccc(O)cc3)c(=O)c3ccc(O)cc23)cc1` [Compound 15b, 6-hydroxy-2-(4-hydroxyphenyl)-4-(4-methoxyphenyl)isoquinolin-1(2H)-one], the “Ki Ratio (ER-α/ER-β)” value in data set [2] was 8.3.
Consider `CC(C)c1onc(-c2c(Cl)cccc2Cl)c1COc1ccc(/C=C/c2cccc(C(=O)O)c2)c(Cl)c1` [GW4064, reference compound], for which the SHP activity result in the data set with SHP promoter was “increased its activity significantly”.
Regarding `O=c1c2c(O)cc(O)cc2ccn1-c1ccc(O)cc1` [Compound 12l, 6,8-dihydroxy-2-(4-hydroxyphenyl)-isoquinolin-1(2H)-one], the “ER-β RLU/RenRLU” value amounted to 0.06 RLU/RenRLU at ER-β (dose 0.1 nM); 0.07 RLU/RenRLU on ER-β (dose 1 nM); 0.16 RLU/RenRLU on ER-β (dose 10 nM); 0.46 RLU/RenRLU at ER-β (dose 100 nM); 0.55 RLU/RenRLU on ER-β (dose 1000 nM). Also, the “ER-α RLU/RenRLU” value amounted to 0.07 RLU/RenRLU on ER-α (dose 0.1 nM); 0.07 RLU/RenRLU at ER-α (dose 1 nM); 0.07 RLU/RenRLU at ER-α (dose 10 nM); 0.12 RLU/RenRLU on ER-α (dose 100 nM); 0.24 RLU/RenRLU on ER-α (dose 1000 nM).
`COc1cc(O)c2c(=O)n(-c3ccc(O)cc3)cc(Br)c2c1` [Compound 12v, 4-bromo-8-hydroxy-2-(4-hydroxyphenyl)-6-methoxyisoquinolin-1(2H)-one]: the “Estradiol activity at 100 nM, ER-α” value on ER-α came out at 17%.
On to `O=c1c2c(O)cc(O)cc2ccn1-c1ccc(O)c(F)c1` [Compound 12s, 2-(3-fluoro-4-hydroxyphenyl)-6,8-dihydroxyisoquinolin-1(2H)-one], for which, in data set [2], the “Ki Ratio (ER-α/ER-β)” value was determined as 25. Moreover, the “Estradiol activity at 100 nM, ER-α” value at ER-α came to 29%.
`COc1cc(O)c2c(=O)n(-c3ccc(O)cc3)ccc2c1C#N` [Compound 12q, 8-hydroxy-2-(4-hydroxyphenyl)-6-methoxy-1-oxo-1,2-dihydroisoquinoline-5-carbonitrile]: the “Estradiol activity at 100 nM, ER-α” value on ER-α is 25%.
Turning to `Oc1ccc(-n2ccc3cc(O)cc(O)c3c2=S)cc1` [Compound 12p, 2-(4-hydroxyphenyl)-6,8-dihydroxy-isoquinoline-1(2H)-thione], in data set [2], the Ki is 17 nM and the “Ki Ratio (ER-α/ER-β)” value came to 8. In addition, at ER-α, the “Estradiol activity at 100 nM, ER-α” value is 45%.
With `O=c1c2ccc(O)cc2c(I)cn1-c1ccc(O)cc1` [Compound 12h, 6-hydroxy-2-(4-hydroxyphenyl)-4-iodoisoquinolin-1(2H)-one], the “Ki Ratio (ER-α/ER-β)” value in data set [2] was 22.
For the molecule `C[C@]12CC[C@@H]3c4ccc(O)cc4CC[C@H]3[C@@H]1CC[C@@H]2O` [Estradiol], in the data set with uterus, the “uterine growth / uterine weight” value is given as “stimulated the proliferation of uterus significantly”.
Take `C=Cc1cn(-c2ccc(O)cc2)c(=O)c2c(O)cc(O)cc12` [Compound 14l, 6,8-dihydroxy-2-(4-hydroxyphenyl)-4-vinylisoquinolin-1(2H)-one]: the Ki in data set [1] was found to be 76 nM; in data set [2] it was 6 nM. Moreover, the “prevention of ROS formation / oxidative damage” value in the data set with ARPE-19 cells is recorded as “protected ARPE-19 cells from oxidative damage”. The “Estradiol activity at 100 nM, ER-α” value on ER-α turned out to be 50%.
For `O=c1c2ccc(O)cc2c(Cl)cn1-c1ccc(O)cc1` [Compound 12f, 4-chloro-6-hydroxy-2-(4-hydroxyphenyl)-isoquinolin-1(2H)-one], in data set [2], the “Ki Ratio (ER-α/ER-β)” value turned out to be 61.
